From patent publication US20080076666A1, “Formulation” (priority 2005, published 2008)
Values after ≈ are worked out from the molar mass of the structure shown. Read-outs that look alike come from different tables or passages of the source.

Legend:
[1] = Water solubility of UV protection dyes (Table 1); conditions: for solubility: water
[2] = Photo stabilisation study of COMPOUND (V) in gelatine microcapsules exposed to daylight (HPLC); format: physicochemical
Protocol: The HPLC system was from Waters comprising of two 510 pumps, a 717 plus Autosampler, a System Interface Module, a Lambda-Max 480 detector and Millennium Chromatography Manager software. Chromatography was achieved on a Zorbax ODS 5 μm C18 analytical column of dimension 4.6×250 mm internal diameter maintained at 35° C. Mobile phases were unmodified water (Milli-Q grade) in reservoir A and unmodified acetonitrile in reservoir B. Linear gradient elution was used with 70 to 90% B over the first 10 minutes, then 100% B for 3 minutes and returning to 70% B over 4 minutes. Injection cycle time was 20 minutes with a flow rate of 2 ml/min. The samples were either dissolved in acetonitrile or diethyl ether and 10 μl volume injected on to the column which was maintained at 35° C. Prior to use, mobile phase were degassed under vacuum with sonication and continuously sparged with helium. The naphthoquinones were detected by measurement of UV absorbance at 269 nm.
A batch of gelatine microcapsules containing 300 mg of COMPOUND (V) in 15 ml of Exxsol® D100 was produced.
The capsule slurry was washed repeatedly with water to remove debris and filtered to obtain a wet cake. An aliquot of the wet cake (11.3 g) was made up to 50 ml and dyed brown with Chocolate Brown (500 mg, equivalent to 10 mg/ml solution). Aliquots (200 μl) of microcapsule slurry of brown and undyed capsules were applied to glass microscope slides in duplicate. The slurry from each batch was spread to form a monolayer of microcapsules on each slide. The slides were air dried in a dark at room temperature (≅21° C.) and exposed to daylight on a south-facing windowsill for various time periods. Two slides from each batch were analysed per time point post of exposure. Unexposed slides stored in the dark were used as time zero reference.
The contents of the capsules were extracted by rupturing the capsules, by rolling a glass rod on the slides, and washing both the rod and the slide with diethyl ether. The extracts were made up to 10 ml and assayed by HPLC.

Compound: CC1=NN(c2ccc(S(=O)(=O)[O-])cc2)C(=O)C1N=Nc1ccc(-c2ccc(N=Nc3ccc(OS(=O)(=O)c4ccc(C)cc4)cc3)c(S(=O)(=O)[O-])c2)cc1.[Na+].[Na+] (centres unmarked) [Acid Orange 63]
- WATER SOLUBILITY [1]: 50 mg/mL

Compound: Cc1nn(-c2ccccc2)c([O-])c1N=Nc1cc([N+](=O)[O-])cc(S(=O)(=O)[O-])c1[O-].[Cr+3].[Na+].[OH-] [Acid Orange 74]
- WATER SOLUBILITY [1]: 20 mg/mL

Compound: Cc1cc(N=Nc2ccc(C)c(N=Nc3cc(C)c(N)cc3N)c2)c(N)cc1N [Bismark Brown R]
- solubility [1]: 70 mg/mL (≈ 180 mM)

Compound: Nc1ccc(N=Nc2cccc(N=Nc3ccc(N)cc3N)c2)c(N)c1 [Bismark Brown Y]
- WATER SOLUBILITY [1]: 50 mg/mL

Compound: Cc1c(C2(c3cc(Br)c(O)c(Br)c3C)OS(=O)(=O)c3ccccc32)cc(Br)c(O)c1Br [Bromocresol Green]
- solubility [1]: 6 mg/mL (≈ 8.6 mM)

Compound: CC(=O)OC1=C(C(C)CCC[Si](C)(C)C)C(=O)c2ccccc2C1=O (centres unmarked) [COMPOUND (V)]
- amount of COMPOUND (V) in capsules, of the initial amount ([2]; Chocolate Brown dyed impervious gelatine microcapsules, 88 hours exposure to daylight (8 hours daylight over 11 days)): ~80%
- amount of COMPOUND (V) in capsules, of the initial amount ([2]; undyed impervious gelatine microcapsules, 6 hours exposure to daylight): 60%
- amount of COMPOUND (V) in capsules, of the initial amount ([2]; undyed impervious gelatine microcapsules, 16 hours exposure to daylight): 23%
- amount of COMPOUND (V) in capsules, of the initial amount ([2]; undyed impervious gelatine microcapsules, 40 hours exposure to daylight (8 hours daylight over 5 days)): 6%
- period for which COMPOUND (V) was stabilised on exposure to daylight ([2]; within impervious gelatine microcapsules (Chocolate Brown dyed)): in excess of eleven-days

Compound: O=S1(=O)OC(c2ccc(O)c(Cl)c2)(c2ccc(O)c(Cl)c2)c2ccccc21 [Chlorophenol Red]
- WATER SOLUBILITY [1]: 60 mg/mL

Compound: Nc1c(/N=N/c2ccc(-c3ccc(/N=N/c4cc(S(=O)(=O)O)c5ccccc5c4N)cc3)cc2)cc(S(=O)(=O)O)c2ccccc12 [Congo Red]
- solubility [1]: 40 mg/mL (≈ 61.3 mM)

Compound: O=S(=O)([O-])c1ccc2c(N=Nc3ccccc3)c(O)ccc2c1.[Na+] [Crocein Orange G]
- WATER SOLUBILITY [1]: 40 mg/mL

Compound: CC(=O)Nc1ccc2nc3c4ccccc4c(=N)cc-3oc2c1.Cl [Darrow Red]
- WATER SOLUBILITY [1]: 1 mg/mL

Compound: CCN(CC)c1ccc(N=Nc2ccc(S(=O)(=O)[O-])cc2)cc1.[K+] [Ethyl Orange]
- WATER SOLUBILITY [1]: 100 mg/mL

Compound: CCN(CC)c1ccc(N=Nc2ccccc2C(=O)O)cc1 [Ethyl Red]
- WATER SOLUBILITY [1]: 3 mg/mL

Compound: CN(C)c1ccc(/N=N/c2ccccc2C(=O)O)cc1 [Methyl Red]
- solubility [1]: 2 mg/mL (≈ 7.43 mM)

Compound: Nc1cc(N)c(N=Nc2cccc3c(S(=O)(=O)O)cccc23)cc1N=Nc1cc([N+](=O)[O-])ccc1O.[Na] [Mordant Brown 1]
- WATER SOLUBILITY [1]: 60 mg/mL

Compound: Cc1cc(N=Nc2cc([N+](=O)[O-])cc([N+](=O)[O-])c2O)c(N)cc1N [Mordant Brown 4]
- WATER SOLUBILITY ([1]; hot water (remark)): 60 mg/mL

Compound: Nc1cc(N)c(S(=O)(=O)[O-])cc1N=Nc1cc([N+](=O)[O-])ccc1O.[Na+] [Mordant Brown 33]
- WATER SOLUBILITY [1]: 20 mg/mL

Compound: Nc1cc(N)c(N=Nc2cc([N+](=O)[O-])cc([N+](=O)[O-])c2O)cc1Cl [Mordant Brown 48]
- WATER SOLUBILITY [1]: 40 mg/mL

Compound: Cc1cc(O)ccc1C1(c2ccc(O)cc2C)OS(=O)(=O)c2ccccc21 [m-Cresol Purple]
- WATER SOLUBILITY [1]: 2 mg/mL

Compound: Acid Orange 51
- WATER SOLUBILITY [1]: 30 mg/mL
